Laboratory results taken from PubChem BioAssay AID463229 (Broad Institute, 2010).
Activity calls are given as the source filed them.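 How the source made its calls: active means compounds raising the signal whose fitted half-maximal concentration is at or below their top tested dose (cut at about 25 µM in these data); inconclusive means flat fit at 30 to 70% activity, or a poor fit; inactive means the rest.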

Each molecule was assayed on INS-1E rat beta cells, no cytokines, CellTiter-Glo ATP, 48 h (assay: ATP level change in INS-1E without cytokines, dose response, counter-screen for beta-cell apoptosis protection project, INS-1E rat cells, ATP luminescence, cherry pick (AID 463229)).

| SMILES | AC50 |
| --- | --- |
| Cc1ccc(S(=O)(=O)/N=C2\C(=O)c3ccccc3C([O-])=C2n2cc[n+](CCC(C)C)c2)cc1 | 16.7 µM |
| O=c1[nH]c(=O)n(-c2ccc(F)cc2)c2c1C(C(F)(F)F)(C(F)(F)F)N=C(c1ccc(F)cc1)N2 | 6.05 µM |
| Cc1cc(C(=O)N/N=C/c2cc(Br)ccc2OC(=O)c2ccccc2)n[nH]1 | 7.44 µM |
| CCN1CCN(c2ccc(S(=O)(=O)N3CCCCC3)cc2NC(=O)c2ccc([N+](=O)[O-])s2)CC1 | 6.94 µM |
| CC1=NN(c2nc(-c3ccc(C)cc3)cs2)C(=O)C1N=Nc1ccc(C(N)=O)cc1 (stereo not given) | 3.53 µM |
| CCC(=O)NC(c1cc(Cl)c2cccnc2c1O)C(C)C (stereo not given) | 7.3 µM |
| CCOc1ccc(-n2c(-c3ccccc3)c[n+]3c2CCC3)cc1 | 1.53 µM |
| COc1ccc(Cn2c(SCc3cc(C)ccc3C)nc3cc(OC)c(OC)cc3c2=N)cc1 | 7.22 µM |
| CCN1/C(=C/c2ccc3cc(C)ccc3[n+]2CC)Sc2ccc3sccc3c21 | 0.316 µM |
| CCN(CC)S(=O)(=O)c1cc(OC)ccc1N=Nc1ccc(O)c2ncccc12 | 4.04 µM |
| COc1ccc2cc1Oc1ccc(cc1)C[C@H]1c3cc(c(OC)cc3CCN1C)Oc1c(O)c(OC)cc3c1[C@H](C2)N(C)CC3 | 7.07 µM |
| CC(=O)Oc1c(I)cc(I)cc1C(=O)Nc1ccc(Cl)cc1 | 14.8 µM |
| Cc1ccc2nc(/C(C#N)=C\c3ccc([N+](=O)[O-])o3)[nH]c2c1 | 2.96 µM |
| COC(=O)c1nc(-c2ccc3c(n2)C(=O)C(N)=C(OC)C3=O)c(N)c(-c2ccc(OC)c(OC)c2O)c1C | 6.46 µM |
| CCc1ccc(CN(C)C(=O)c2cc(COc3cccc4cnccc34)on2)cc1 | 7.91 µM |
| C/C(=N\NC(=O)c1ccc(NS(=O)(=O)c2cccs2)cc1)c1ccccn1 | 13.3 µM |
| C1CCC(C(CC2CCCCN2)C2CCCCC2)CC1 (stereo not given) | 9.74 µM |
| CN(C)c1cc[n+](CC(=O)c2ccc(-c3ccccc3)cc2)cc1 | 1.22 µM |
| O=C(N/N=C/c1cc(Cl)ccc1O)c1cccnc1 | 8.72 µM |
| c1ccc(-c2cc(-c3ccccc3)[n+](-c3ccccc3)c(-c3ccccc3)c2)cc1 | 2.65 µM |
| O=C(Nc1cccnc1)c1cccs1 | 1.86 µM |
| O=C(c1cc(-c2cccc(O)c2)on1)N1CCN(C(c2ccccc2)c2ccccc2)CC1 | 14.4 µM |
| NC1=NC[C@@H](CC2CCCCC2)N1CCc1cc(C(F)(F)F)cc(C(F)(F)F)c1 | 9.46 µM |
| Oc1c(Br)cc(Br)cc1/C=N/NC(=S)N[C@H]1CC2C=CC1C2 (stereo not given in full) | 12.1 µM |
| COc1ccccc1N1CCN(Cc2ccc(O)c3ncccc23)CC1 | 5.14 µM |
| CC(=O)Nc1ccc(Nc2c3ccccc3nc3ccccc23)cc1 | 7.08 µM |
| CC[C@H](C)Cc1cn([C@@H](CCCCNC(=O)OC(C)(C)C)C(=O)NCCCCCCCCCCC(=O)N2CCN(C(=O)OC(C)(C)C)CC2)nn1 | 20.2 µM |

| SMILES | AC50 |
| --- | --- |
| Cc1cc(C)n(-c2nc(NCCO)c3c4c(sc3n2)CCCC4)n1 | > 26 µM (inactive) |
| CCCN(CCC)C(=O)c1cc([N+](=O)[O-])cc2c1-c1ccc([N+](=O)[O-])cc1C2=C(C#N)C#N | 14.2 µM |
| COC(=O)c1ccc2c(c1)C(C)(C)C(/C=C/c1ccc(OC)c(OC)c1OC)=[N+]2C | 2.16 µM |
| CCN1/C(=C/c2cccc[n+]2C)Sc2ccc(OC)cc21 | 1.58 µM |
| COc1cccc(/C=N/NC(=O)c2c(C)nc3ccc(Br)cn23)c1O | 3.16 µM |
| Cc1ccc(-c2ccc(/C=C3\C(=O)ON=C3c3ccccc3)o2)c([N+](=O)[O-])c1 | 6.77 µM |
| CC1CC(=O)c2c(cc3c(-c4c(O)cc(O)c5c(O)c6c(cc45)OC(C)CC6=O)c(O)cc(O)c3c2O)O1 (stereo not given) | 5.1 µM |
| Cc1ccccc1CNc1ccc(C(CC(N)=O)NC(=O)c2ccc(Br)cc2)cc1[N+](=O)[O-] (stereo not given) | 15.7 µM |
| Nc1c(C(=O)Nc2ccc(S(=O)(=O)N3CCCC3)cc2)sc2nc3ccc(OC(F)(F)F)cc3cc12 | 5.29 µM |
| O=C(Nc1nc(-c2ccccn2)cs1)c1ccc(Br)s1 | 6.75 µM |
| Cc1[nH]n(-c2ccccc2)c(=O)c1/C=N/Nc1nncc(-c2ccccc2)n1 | 1.22 µM |
| Nc1nonc1-n1nnc(C(=O)N/N=C/c2cc(Br)ccc2O)c1CNc1ccccc1 | 8.29 µM |
| C=CC[n+]1c(/C=C2\C=Cc3cc(C)ccc3N2CC)ccc2ccccc21 | < 0.195 µM |
| COc1ccc(Nc2nc(N3CCCCC3)c3ccccc3n2)cc1 | 12 µM |
| Cc1ccc(S(=O)(=O)NCc2ccncc2)cc1C | 4.92 µM |
| O=[N+]([O-])c1ccc(-c2nc3ccc([N+](=O)[O-])cc3[nH]2)cc1 | 6.93 µM |
| CCCCCc1cc(=O)oc2c(C(CCN(CC)CC)c3ccc(OC)cc3)c(OC)cc(OC)c12 (stereo not given) | 14 µM |
| Fc1ccc(C[n+]2c(-c3ccccc3)cc(-c3ccccc3)cc2-c2ccccc2)cc1 | 3.99 µM |
| Cc1ccc2cc(C3C(C#N)=C(N)Oc4c3ccc3cccnc43)c(=O)[nH]c2c1 (stereo not given) | 5.81 µM |
| N#CC(C#N)=C(Nc1ccc(F)cc1)SCc1cccc(F)c1 | 5.08 µM |
| CC1CCCCC1NS(=O)(=O)c1ccc(S(=O)(=O)NCc2ccncc2)cc1 (stereo not given) | 4.07 µM |
| O=[N+]([O-])c1cc(C(F)(F)F)ccc1NCCCCNS(=O)(=O)c1ccc(Cl)cc1 | 6.94 µM |
| COc1ccc(NS(=O)(=O)c2ccc(N3CCCCC3)c(N)c2)cc1 | 4.75 µM |
| c1ccc(CCNc2nc(-c3ccccn3)nc3ccccc23)cc1 | 4.92 µM |
| C/C(=N\NC(=O)C(=O)Nc1cccc(Cl)c1)c1ccncc1 | 6.53 µM |
| Cc1[nH]nc2nc(SCC(=O)NCCC3=CCCCC3)n(-c3ccc(Br)cc3)c(=N)c12 | 6.36 µM |
| c1ccc(Nc2nc(NCc3ccco3)c3ccccc3n2)cc1 | 8.02 µM |

| SMILES | AC50 |
| --- | --- |
| O=S(=O)(c1ccc(F)c(F)c1F)N1CCN(c2ncnc3sccc23)CC1 | 7.17 µM |
| CC1=C(C#N)C(C(F)(F)F)(C(F)(F)F)N=C(c2ccco2)N1 | 12.8 µM |
| N=c1ccn(CC(=O)c2ccc(-c3ccccc3)cc2)cc1 | 1.94 µM |
| CCCCC(CC)CN1C(=O)/C(=C/c2ccncc2)SC1=S (stereo not given) | > 26 µM (inactive) |
| O=C(N/N=C/c1c(O)ccc2ccccc12)c1cccnc1 | 4.07 µM |
| COc1cc([N+](=O)[O-])ccc1NC(=O)CC1SC(=Nc2ccc(F)cc2)N(CCC2=CCCCC2)C1=O (stereo not given) | 4.23 µM |
| O=S(=O)(NCc1ccncc1)c1ccc(Br)s1 | 4.25 µM |
| CCC(=O)NC(c1ccc(OC)cc1)c1cc(Cl)c2cccnc2c1O (stereo not given) | 6.63 µM |
| CC(C)(C)c1ccc(NNC(=O)C2CCC2)cc1 | 9.64 µM |
| C=CCc1cccc(/C=N/NC(=O)c2ccc3nc[nH]c3c2)c1O | 6.52 µM |
| CC(=O)Nc1ccc(S(=O)(=O)Nc2ccc(N3CCCCC3)cc2)cc1 | 4.33 µM |
| Nc1cc2c3c(cccc3c1)C(=O)N(CCN1CCCC1)C2=O | 12.7 µM |
| CCCCSc1nc2sc3c(c2c(=O)n1-c1ccc(C)cc1)CCN(C)C3 | 22.4 µM |
| CC(=O)NN1C(=O)c2ccc3c4c(ccc(c24)C1=O)C(=O)N(NC(C)=O)C3=O | 3.65 µM |
| COc1ccc(C(=O)NCC(=O)N/N=C/c2ccc([N+](=O)[O-])s2)cc1OC | 13.5 µM |
| NC(=O)c1ccc(N2CCN(S(=O)(=O)c3cccs3)CC2)c([N+](=O)[O-])c1 | 6.36 µM |
| CC(=O)Nc1ccc(NC(=O)CN(c2cccc([N+](=O)[O-])c2)S(C)(=O)=O)cc1 | 6.49 µM |
| NC1=NC[C@H](Cc2ccccc2)N1CCCCC1CCCCC1 | 6.91 µM |
| Cc1ccc(C(=O)N2N=C(c3ccc(Br)cc3)CC2c2ccccc2O)cc1 (stereo not given) | 7.3 µM |
| CN(C)CCCn1cnc2c(c1=N)C(c1ccccc1)c1ccc3ccccc3c1O2 (stereo not given) | 7.08 µM |
| CCCCC(=O)NC(c1ccc(Cl)cc1)c1ccc2cccnc2c1O (stereo not given) | 1.35 µM |
| O=C(Nc1ccc(-c2csc(Nc3cccc(C(F)(F)F)c3)n2)cc1)c1cc([N+](=O)[O-])cc(C(F)(F)F)c1 | 7.63 µM |
| CC(Oc1cccc(Cl)c1)C(=O)Nc1cc(S(=O)(=O)N2CCOCC2)ccc1N1CCCCC1 (stereo not given) | 5.68 µM |
| Cc1ccc(Nc2cc(C)nc(NCc3ccccc3)n2)cc1 | 8.01 µM |
| Cc1ccc(-c2nn(-c3ccccc3)cc2/C=C/C(=O)Nc2cccc(S(N)(=O)=O)c2)cc1 | 2.75 µM |
| COC(=O)c1ccccc1NC1=C/C(=N\S(=O)(=O)c2ccc(C(=O)O)cc2)c2ccccc2C1=O | 9.17 µM |
| c1ccc(CSc2ccc(-c3ccccn3)nn2)cc1 | 18.8 µM |

| SMILES | AC50 |
| --- | --- |
| CCOc1ccc2nc(NC(=O)c3cccc(-c4cc5ccccc5oc4=O)c3)sc2c1 | 3.31 µM |
| CCCCCCCCCn1ccc(=N)cc1 | 0.553 µM |
| O=c1cc(CSc2ccc(Cl)cc2)nc(-c2ccccn2)[nH]1 | 11.6 µM |
| CCOC(=O)c1sc(NC(=O)Nc2cccc(Cl)c2)cc1C | 7.53 µM |
| CC(=O)Nc1sc2c(c1-c1nc3ccccc3s1)CN(C(C)C)CC2 | 3.79 µM |
| CC(=O)N1c2ccc(S(=O)(=O)N3CCC(C(=O)N4CCN(c5cccc(C(F)(F)F)c5)CC4)CC3)cc2CC1C (stereo not given) | 5.82 µM |
| COC(=O)C1=C(c2ccc(OCc3ccccc3)cc2)C[C@@H]2CC[C@H]1N2C(=O)NC1CCN(Cc2ccccc2)CC1 | 7.55 µM |
| C=CCn1c(SCC(=O)c2[nH]c(C)c(C(=O)OCC)c2C)nc2scc(-c3ccc(OC)c(OC)c3)c2c1=O | 3.53 µM |
| O=C1C(Nc2ccccc2)=C/C(=N/S(=O)(=O)c2cccs2)c2ccccc21 | 2.07 µM |
| CNc1nc2cc([N+](=O)[O-])c([N+](=O)[O-])cc2nc1NC | 0.278 µM |
| COc1ccc(NS(=O)(=O)c2ccc(-c3cnc(C4CC4)o3)cc2)cc1OC | 6.58 µM |
| Cc1cccc(OCc2n(CC(=O)OC3CC(C)CCC3C(C)C)c3ccccc3[n+]2C)c1 (stereo not given) | 4.12 µM |
| CC1CCC(C(C)C)C(OC(=O)C[n+]2cc(-c3ccc(Cl)cc3)n3c2CCCCC3)C1 (stereo not given) | 7.32 µM |
| Nc1c(Cl)ncnc1N/N=C/c1ccccn1 | 2.07 µM |
| COc1ccc(Cl)c(Cn2c(NCc3ccco3)nc3c2c(=O)n(C)c(=O)n3C)c1 | 13.1 µM |
| CCOc1ccc(C(Nc2cccnc2)c2cc(Cl)c3cccnc3c2O)cc1 (stereo not given) | 7.33 µM |
| COc1cccc(CNCCc2c[nH]c3ccccc23)c1OCc1ccccc1F | 7 µM |
| Fc1ccc(CN(Cc2ccccc2)C(c2cccs2)c2nnnn2C2CCCCC2)cc1 (stereo not given) | 5.93 µM |
| Cc1cccc(NC2=C/C(=N/S(=O)(=O)c3cccs3)c3ccccc3C2=O)c1 | 3.97 µM |
| O=C(N/N=C/c1ccc(O)cc1O)/C(=C/c1ccccc1)CCO | 6.54 µM |
| C/C(=N\NC(=O)c1ccc(Cl)c(Cl)c1)c1ccccn1 | 0.98 µM |
| Cc1cc(C)nc(SCc2ccc(C(=O)N/N=C/c3cccc(O)c3O)cc2)n1 | 8.06 µM |
| NS(=O)(=O)c1ccc(N=Nc2ccc(O)c3ncccc23)cc1 | 8.05 µM |
| COc1cccc(C(NC(C)=O)c2ccc3cccnc3c2O)c1 (stereo not given) | 3.78 µM |
